Blank lines part the entries; values can stand above or below the compound they belong to.
Tests used:
caspase-3 = assay: Immunoblot with anti-cleaved caspase-3 antibody; format: cell-based, rat; settings: Doxo, 6 and 24 hour time points
Source text: For analyses of Mst1, cells were lysed in a Lysis Buffer A, containing 25 mmol/L NaCl, 25 mmol/L Tris (pH 7.4), 1 mmol/L Na3VO4, 10 mmol/L NaF, 10 mmol sodium pyrophosphate, 0.5 mmol/L EGTA, 0.5 mmol/L AEBSF, 0.5 μ/mL leupeptin, 0.5 μ/mL aprotinin. Samples containing the equal amount of protein were subjected to SDS-PAGE. Proteins were transferred onto polyvinylidene fluoride microporous membranes (Bio Rad, Hercules, Calif.) and probed with primary antibodies. We used anti-Mst1 monoclonal antibody (Transduction Laboratory, Lexington, Ky.) for detection of the carboxyl terminus of Mst1. Affinity purified rabbit polyclonal antibody was raised against animo-terminal ETVQLRNPPRRQLKC (pAb-15) (SEQ ID NO:4) (BioSource International, Camarillo, Calif.) for detection of the amino-terminus of Mst1. Blots were then probed by horseradish peroxidase-conjugated anti-mouse IgG or anti-rabbit IgG (Cell Signaling Technolog Inc., Beverly, Mass.). Antigen-antibody complexes were visualized by the enhanced chemiluminescence system (ECL, Amersham/Pharmacia, Piscataway, N.J.). Polyclonal antibodies raised against cleaved caspase-3 (Cell Signaling Technology Inc.) were used to determine activation of caspase-3, as described (35).

caspase-9 = assay: Western blot of caspase-9 cleavage; format: cell-based, rat; settings: Doxo, 6 and 24 hour time points
cardiac myocytes [1] = assay: Morphology of cardiac myocytes (cell shrinkage, cell death); format: cell-based, rat; settings: within 6 h
cardiac myocytes [2] = assay: Cell Death Detection ELISA: cytoplasmic accumulation of mono- and oligo-nucleosomes (DNA fragmentation); format: cell-based, rat
Protocol: Primary cultures of ventricular cardiac myocytes were prepared from 1-day-old Crl: (WI) BR-Wistar rats (Charles River Laboratories, Wilmington, Mass.) as described previously (34). A cardiac myocyte rich fraction was obtained by centrifugation through the discontinuous Percoll gradient as described (34). Cells were cultured in the cardiac myocyte culture medium containing Dulbecco's modified Eagle medium (DMEM)/F12 supplemented with 5% horse serum, 4 μg/mL transferrin, 0.7 ng/mL sodium selenite (GIBCO), 2 g/L bovine serum albumin (fraction V), 3 mmol/L pyruvic acid, 15 mmol/L HEPES, 100 μmol/L ascorbic acid, 100 μg/mL ampicillin, 5 μg/mL linoleic acid and 100 μmol/L 5-bromo-2′-deoxyuridine (Sigma). We obtained myocyte cultures in which more than 95% were myocytes, as assessed by immunofluorescence staining with a monoclonal antibody against sarcomeric myosin (MF20). Culture media were changed to serum-free at 24–36 h and then subjected to adenovirus transduction. Myocytes were cultured in the serum-free condition for 48 h before experiments.
Histone-associated DNA fragments were quantified by the Cell Death Detection ELISA (Roche, Indianapolis, Ind.) according to the manufacturer's instruction as described (35) with minor modification for sample preparation. In brief, myocytes were rinsed with PBS three times in order to remove nucleosomes leaked out from necrotic cells and then incubated with the lysis buffer for 30 min. The supernatant containing mono- and oligonucleosomes from the cytoplasmic fraction of apoptotic cells was used for further analyses. DNA fragmentation of the tissue samples was determined by DNA laddering assays. Genomic DNA containing small molecular weight fragments was isolated and analyzed by agarose gel electrophoresis as described (36).

[3] = test system: Neonatal rat cardiac myocytes; assay: Phenylephrine-induced hypertrophy of cultured cardiac myocytes; format: cell-based; settings: PE 10 μM 48 h, LacZ virus-transduced myocytes
Source text: We have previously and above shown that mammalian sterile-20 like kinase 1 (Mst1) plays an important role in mediating cardiac myocyte apoptosis in response to ischemia/reperfusion and doxorubicin treatment. Cardiac specific overexpression of Mst1 in transgenic mice (Tg-Mst1) increases cardiac myocyte apoptosis in the heart and the mice develop dilated cardiomyopathy (DCM) and congestive heart failure within 3 months of age. […] Lack of compensatory cardiac myocyte hypertrophy may adversely affect LV function of Tg-Mst1 because operation of the Frank Starling mechanism could be less efficient at the individual cell level. This study was undertaken in order to elucidate if transient expression of Mst1 has a direct anti-hypertrophic effects in cultured cardiac myocytes in vitro. Neonatal rat cardiac myocytes were transduced with adenoviral vectors (10 MOI) in serum-free conditions for 48 h and then treated with phenylephrine (PE, 10 μM) for 48 h. Phenylephrine stimulates hypertrophy of cardiac myocytes in normal animals. Treatment of LacZ virus-transduced myocytes with PE caused a 2.4 fold increase in the cell size and a 1.7 fold increase in protein/DNA content. […] In summary, Mst1 has a direct anti-hypertrophic effect upon PE-treated cultured cardiac myocytes, possibly affecting other signaling mechanisms, including ERKs.

Mst1 = assay: In gel myelin basic protein (MBP) kinase assay of cardiac myocyte lysates; format: cell-based, rat; settings: in the presence of DEVD-CHO, 100 μM
Protocol: FIGS. 1A, 1B, 1C, 1D and 1E depict Mst1 activity assessed on treatment of cardiac myocytes with chelerythrine (Chele) or calyculin A. (A) Cardiac myocytes were treated with indicated concentrations of chelerythrine for 1 h. Cell lysates were subjected to in-gel myelin basic protein (MBP) kinase assay as well as immunoblotting with anti-cleaved caspase-3 antibody. Results are representative of more than five experiments. (B) Cardiac myocytes were treated with chelerythrine (Chele). In the right panel, myocytes were transduced with either control virus or adenovirus harboring XIAP 48 hours before Chele application. Cell lysates were subjected with immune complex in-gel MBP kinase assays, using anti-Mst1 polyclonal antibody (pAb-15). The activity of cleaved Mst1 is shown. (C) Cardiac myocytes were treated with Chele for the indicated durations. […]
Primary cultures of ventricular cardiac myocytes were prepared from 1-day-old Crl: (WI) BR-Wistar rats (Charles River Laboratories, Wilmington, Mass.) as described previously (34). […] We obtained myocyte cultures in which more than 95% were myocytes, as assessed by immunofluorescence staining with a monoclonal antibody against sarcomeric myosin (MF20). […]

activation (cleavage) of caspase-3 (caspase-3): time dependent manner
Compound: COc1cccc2c1C(=O)c1c(O)c3c(c(O)c1C2=O)C[C@@](O)(C(=O)CO)C[C@@H]3O[C@H]1C[C@H](N)[C@H](O)[C@H](C)O1 [Dox, Doxorubicin]
activation (cleavage) of caspase-9 (caspase-9): time dependent manner
concentrations that dose-dependently induced cell shrinkage (cardiac myocytes [1]): 0.1 to 3 µM
OD405 value (DNA fragmentation ELISA) (cardiac myocytes [2]; 6 h treatment with 0.5 μM Dox, control virus): 0.69

Compound: CNC[C@H](O)c1cccc(O)c1 [PE, phenylephrine]
increase in protein/DNA content [3]: 1.7 fold
increase in the cell size [3]: 2.4 fold

Compound: COC[C@@H]([C@H](O)[C@H](O)C(=O)NCC[C@H](C)c1nc(/C=C/C[C@@H]2O[C@]3(C[C@@H](O)[C@@H]2C)O[C@H]([C@H](C[C@H](O)[C@H](C)[C@H](O)[C@H](C)/C=C(C)/C(C)=C/C=C/C(C)=C\C#N)OC)[C@H](OP(=O)(O)O)C3(C)C)co1)N(C)C [calyculin A]
increase in cytoplasmic accumulation of oligo- and mono-nucleosomes (cardiac myocytes [2]; vs untreated, n=4, p<0.05): 4.3±1.4 fold
DNA fragmentation by calyculin A (cardiac myocytes [2]; with control virus): 5.6 fold

increased activities and cleavage of Mst1 by overexpression of Mst1 (Mst1): attenuated
Compound: DEVD-CHO
increases in DNA fragmentation by wild type Mst1 (cardiac myocytes [2]; in the presence of DEVD-CHO, 100 μM): inhibited

— patent publication US7160859B2, “Mst1 modulation of apoptosis in cardiac tissue and modulators of Mst1 for treatment and prevention of cardiac disease” (University of Medicine & Dentistry of New Jersey, priority 2002, dated 2007)
